Data from patent US10857107B2, “Cannabinoid-containing complex mixtures for the treatment of mast cell-associated or basophil-mediated inflammatory disorders” (priority 2017, dated 2020).
“Also recorded” adds a separate entry of the source. Like-named read-outs stand apart in the source and are kept apart here.

Experiments:
Assay type in all cases: cell-based
[1] = test system: mast cells (from a mast cell line, RBL2H3); test: FcεRI ligation-induced mast cell degranulation measured by histamine release (ELISA); conditions: for anti-inflammatory effects on mast cell degranulation (in words): individual compound alone, 10 μM, histamine release; for inhibition at 10 µM: Rattus norvegicus; for increase of FcεRI ligation-induced histamine secretion: compound alone at 10 μM (FIG. 5)
Description: For the FcεRI assay, mast cells (from a mast cell line, RBL2H3) were plated in cluster plates at 5×10^4 cells/well. Monolayers were washed and incubated in 200 μl Tyrode's buffer. The mast cells were then primed with 1 μg/ml IgE-anti-DNP antibodies for 16 hours. The cells were then washed three times and a cannabinoid-containing complex mixture, prepared as above-described, was applied. The tested complex mixtures were applied in an amount calculated to expose the mast cells to 10 μM of cannabidiol and 10 μM of each minor cannabinoid or terpene component. Control for maximal FcεRI ligation-induced degranulation included no cannabinoid-containing complex mixture.
After 10 minutes, 250 ng/ml of DNP-BSA was applied to ligate FcεRI molecules on the mast cell surface.
Mast cell culture medium was collected 60 minutes after exposure to DNP-BSA with or without a tested cannabinoid-containing complex mixture. Degranulation of the mast cells was tested by measuring histamine release using a commercial ELISA kit (e.g., histamine ELISA kit available from ENZO Life Sciences, Inc., Rocky Mountain Diagnostics, Inc., etc.).
Mast cell degranulation for each tested complex mixture was measured based on the amount of histamine release and is presented as % histamine release compared to histamine release in response to PMA/Ionomycin (100%). Each complex mixture was tested in twenty-four (8×3) independent experiments and data from the twenty four independent experiments were averaged. The averaged values are presented as a bar for each complex mixture in FIG. 2. Standard deviations are also provided in the graph.
The % degranulation in response to each cannabinoid-containing complex mixture was used to calculate % inhibition of degranulation by subtracting the % degranulation from 100%.
Anti-inflammatory effects of (i) each major cannabinoid, (ii) each minor cannabinoid, and (iii) each selected terpene, were assessed based on their inhibition of FcεRI-induced mast cell degranulation by measuring histamine release as described above.
Their anti-inflammatory effects are presented as % reduction of histamine release in the presence of the tested compound compared to the histamine release in the presence of PMA/Ionomycin (0%). Standard deviations of the experimental data are also provided in the graphs.

Mast cells [2] = test: FcεRI-induced mast cell degranulation, beta-hexoseaminidase assay (dose response); conditions: for IC50: read-out: IC50 of inhibitory effects on FcεRI-induced degranulation; for change of anti-inflammatory effects when 10 μM cannabigerol was added: various concentrations (1 nM to 50 μM) plus 10 μM cannabigerol
Description: As provided in FIG. 12, anti-inflammatory effects of limonene, and cannabidiol (CBD), were assessed at 11 different concentrations (x-axis: 0, 1, 5, 10, 50, 100, 500, 1000, 5000, 10000, 50000 nM) in the presence (a line with triangles and a line with circles, respectively) or absence of 10 μM cannabigerol (CBG-a line with diamonds and a line with exes, respectively). In this experiment, anti-inflammatory effects of the mixtures were based on effects on mast cell degranulation, measured using a beta-hexoseaminidase assay.
Beta-hexoseaminidase assays: Mast cells were primed with anti-DNPA IgE, and then stimulated with DNP-BSA in the presence of absence of a tested composition as described in Example 2. Mast cell culture medium was collected 60 minutes after exposure to FcεRI and incubated for 45 minutes at 37° C. 25 μl of its supernatant was removed, clarified by microcentrifugation, and transferred to a 96 well plate containing 100 μl per well 1 mM p-N-acetyl glucosamine (Sigma) in 0.05 M citrate buffer pH 4.5. After incubating the mixture for 1 hour at 37° C., the reaction was quenched by addition of 100 μl per well 0.2 M glycine, pH 9.0. Beta-hexosaminidase levels were read as OD at 405 nm.

[3] = test system: mast cells (from a mast cell line, RBL2H3); test: FcεRI ligation-induced mast cell degranulation measured by histamine release (ELISA); conditions: nanomolar concentration; compared to PMA/Iomomycin (100%)
RBL2H3 cells [4] = test: FcεRI-induced degranulation with CBG/CBD, FAAH inhibitor or PDEI pre-incubation (beta-hexoaseaminidase assay); conditions: for Outcome (normalized cellular degranulation response): T60
Description: Experiments were conducted to test the hypothesis that CBG-mediated anti-inflammatory effects, i.e., suppression of degranulation, is by increase of intracellular cAMP and the increase of intracellular cAMP results from CBG's antagonizing effects on the interaction between AEA and CB1/2 receptors. To test this hypothesis, the ability of CBG to decrease FcεRI-induced degranulation was assessed. Mast cells were incubated with or without CBG before addition of FcεRI. An FAAH inhibitor was used as a control to increase the levels of AEA and thus saturate the CB1/2 receptors, resulting in decreased cAMP. PDEI was used as a control to directly increase the levels of intracellular cAMP. Cells were also incubated with CBD alone or CBG and CBD to assess the synergistic effects of CBD and CBG.
RBL2H3 cells were pre-incubated for 3 h at 37° C. at with (i) 10 μM FAAH inhibitor LY2183240/PF750 cocktail, (ii) 10 μM PDEI 3-isobutyl-1-methylxanthine (IBMX), or (iii) vehicle (Table 3). Vehicle or 300 nM CBG (30% of the CBG dose previously determined to cause maximal enhancement of the suppressive effect of CBD) was applied to Groups D-F and J-I, the first—one hour prior to FcεRI-induction—and the second—two hour prior to FcεRI-induction (T0, antigen), and remained throughout the course of the experiment. Vehicle was DMSO, methanol, or PBS. 10 μM CBD was additionally added to Groups D-I, 20 minutes prior to FcεRI-induction of degranulation. Cellular degranulation was measured using a beta-hexoaseaminidase assay at 1 h post-induction (T60). Replicates were done in triplicate and averaged. Degranulation of each of the groups was normalized to Row L. The outcome data presented in the column “Outcome” of Table 3 is the normalized cellular degranulation response of each averaged group. Group ABC was p<0.005 relative to Group LMN. Group GHI was p<0.005 relative to Group LMN. Row F had no significant difference relative to Row D. Row E was p<0.05 relative to Row D.

Mast cells [5] = test: Histamine release with cannabidivarin, with or without FcεRI ligation (time course)
Description: FIG. 7A provides data from Example 3 illustrating pro-inflammatory effects of cannabidivarin. […] The X-axis represents minutes after application of the FcεRI crosslinking agonist, and the y-axis represents the amount of histamine release (pg/10 million cells). FIG. 7B compares histamine release (pg/10 million cells) measured 10 minutes after exposure to the FcεRI crosslinking agonist (left) or to cannabidivarin without the FcεRI crosslinking agonist (right).
The x-axis represents minutes after application of BSA-DNP and y-axis represents the amount of histamine release (pg/10 million cells). Pro-inflammatory effects of cannabidivarin was even greater than effects of FcεRI ligation; histamine release in response to FcεRI ligation was about 220 pg/10 million cells after 10 minute exposure, while histamine release in response to cannabidivarin (without concurrent FcεRI ligation) was about 340 pg/10 million cells.

RBL2H3 cells [6] = test: Intracellular free calcium assay (Fluo-4); conditions: external calcium 1 mM
Description: FIG. 16 provides data from Example 6 illustrating the intracellular free calcium measurements in the presence of external calcium (1 mM) in RBL2H3 cells stimulated in the absence (control vehicle) or presence of 1, 10, or 50 μM CBG. Ionomycin was used as a positive control. Stimuli were added at 20 s.
RBL2H3 cells were washed and incubated with 0.2 μM Fluo-4 for 30 minutes at 37° C. in a standard modified Ringer's solution (145 mM NaCl, 2.8 mM KC1, 10 mM CsCl, +/−1-10 mM CaCl2, 2 mM MgCl2, 10 mM glucose, 10 mM HEPES, pH 7.4, 330 mOsm). Cells were transferred to 96-well plates at 50,000 cells/well and stimulated with 1, 10, or 50 μM CBG. 500 nM ionomycin was used as positive control to induce calcium response. Calcium signals were acquired using a Flexstation 3 (Molecular Devices, Sunnydale, USA) for 3 min. Data was analyzed using SoftMax® Pro 5 (Molecular Devices).

[7] = RBL-2H3, read-out: % inhibition of FcεRI-induced degranulation (reduction of histamine secretion)
[8] = Antigen at T0, only the named substance(s), otherwise vehicle, 300 nM CBG, 10 μM CBD, 10 μM LY2183240/PF750 or IBMX, normalized to Row L
[9] = Antigen at T0, cells pre-incubated 3 h with 10 μM FAAH inhibitor LY2183240/PF750 cocktail, 300 nM CBG, 10 μM CBD
[10] = Antigen at T0, cells pre-incubated 3 h with 10 μM PDEI IBMX, 300 nM CBG, 10 μM CBD

CC1=CCC2CC1C2(C)C (stereo not drawn) [pinene]
anti-inflammatory effects on mast cell degranulation (in words) [1]: almost no anti-inflammatory effects

C=CC(C)(O)CCC=C(C)CCC=C(C)C (stereo not drawn) [nerolidol]
anti-inflammatory effects on mast cell degranulation (in words) [1]: almost no anti-inflammatory effects

C=CC(C)(O)CCC=C(C)C (stereo not drawn) [linalool]
anti-inflammatory effects on mast cell degranulation (in words) [1]: almost no anti-inflammatory effects

CCCCCc1cc(O)c2c(c1)OC(C)(C)c1ccc(C)cc1-2 [cannabinol]
inhibition at 10 µM [1, 7]: ≤ 20%

CCCCCc1cc(O)c2c(c1)OC(C)(CCC=C(C)C)C=C2 (stereo not drawn) [cannabichromene]
inhibition at 10 µM [1, 7]: ≤ 20%
anti-inflammatory effects on mast cell degranulation (in words) [1]: almost no anti-inflammatory effects

C=C(C)[C@H]1CC=C(C)CC1 [limonene]
% inhibition of FcεRI-induced degranulation (reduction of histamine secretion) ([1]; individual compound alone at 10 μM): 24%
IC50 (Mast cells [2]; alone): ~480 nM
IC50 (Mast cells [2]; in combination with 10 μM cannabigerol (CBG)): ~100 nM
change of anti-inflammatory effects when 10 μM cannabigerol was added (Mast cells [2]): significantly enhanced their anti-inflammatory effects

C/C(=C\CO)CCC[C@H](C)CCC[C@H](C)CCCC(C)C [phytol]
anti-inflammatory effects on mast cell degranulation (in words) [1]: almost no anti-inflammatory effects

CCCCCCC(C)(C)c1ccc([C@@H]2C[C@H](O)CC[C@H]2CCCO)c(O)c1 [CP55940]
suppression of histamine release of mast cells [3]: about 30%

CC(C)Cn1c(=O)n(C)c(=O)c2[nH]cnc21 [IBMX, 3-isobutyl-1-methylxanthine]
Outcome (normalized cellular degranulation response) (RBL2H3 cells [4]; [8]): 0.34
reduction of FcεRI-induced degranulation (RBL2H3 cells [4]; alone, 10 μM, Row N): 3 fold
Outcome (normalized cellular degranulation response) (RBL2H3 cells [4]; no Antigen (vehicle at T0), 10 μM pre-incubation 3 h): 0.06

C=C(C)[C@@H]1CCC(C)=C[C@H]1c1c(O)cc(CCCCC)cc1O [cannabidiol]
inhibition at 10 µM ([1]; RBL-2H3, read-out: % inhibition of FcεRI-induced degranulation (reduction of histamine secretion), individual compound alone at 10 μM): 23%
change of anti-inflammatory effects when 10 μM cannabigerol was added (Mast cells [2]): significantly enhanced their anti-inflammatory effects
Outcome (normalized cellular degranulation response) (RBL2H3 cells [4]; [9]): 0.56
Outcome (normalized cellular degranulation response) (RBL2H3 cells [4]; [10]): 0.32
Outcome (normalized cellular degranulation response) (RBL2H3 cells [4]; [8]): 0.54

C=C(C)[C@@H]1CCC(C)=C[C@H]1c1c(O)cc(CCC)cc1O [cannabidivarin]
increase of FcεRI ligation-induced histamine secretion [1]: 26%
increase of FcεRI ligation-induced histamine secretion ([1]; listed as Cannabidivarin): more than 20%
histamine release (Mast cells [5]; in response to cannabidivarin without concurrent FcεRI ligation, 10 minute exposure): about 340 pg/10 million cells
effect of pretreatment on FcεRI ligation-induced histamine release (Mast cells [5]; pretreatment with 10 μM for 10 minutes before FcεRI ligation): significantly enhanced pro-inflammatory effects of FcεRI ligation; also recorded: further enhanced pro-inflammatory effects

CCCCCc1cc(O)c(C/C=C(\C)CCC=C(C)C)c(O)c1 [cannabigerol]
inhibition at 10 µM [1, 7]: ≤ 20%
anti-inflammatory effects on mast cell degranulation (in words) [1]: almost no anti-inflammatory effects
anti-inflammatory effects on mast cell degranulation (in words) ([1]; listed as Cannabigerol): does not have significant effects on mast cell degranulation
suppression of FcεRI ligation-induced degranulation (Mast cells [2]; alone, at the highest concentration tested (50 μM)): less than 10%
Outcome (normalized cellular degranulation response) (RBL2H3 cells [4]; [9]): 0.92
Outcome (normalized cellular degranulation response) (RBL2H3 cells [4]; [10]): 0.28
Outcome (normalized cellular degranulation response) (RBL2H3 cells [4]; [8]): 0.98
effect on intracellular calcium (RBL2H3 cells [6]; 50 μM): moderate increase in intracellular calcium
effect on intracellular calcium (RBL2H3 cells [6]; lower doses (1 and 10 μM)): did not significantly alter the intracellular calcium
